Data taken from patent US8044213B2, “Thiazolyl-benzimidazoles” (Hoffmann-La Roche Inc., priority 2008, dated 2011).

Molecular target: T1, PLK1 (Homo sapiens, UniProt P53350)
T1 construct: Full-length, active GST-Plk1 was purified from Sf9 insect cells; GST (N); made in house; host or cells: Sf9 insect cells
Assay: Biochemical Characterization Assay B (peptide substrate, LABCHIP EZ Reader II)
Conditions: PLK1, peptide RRRAGALMDASFEEQ-CONH2, % conversion on LABCHIP EZ Reader II
Description: Compounds were serially diluted to 6400, 2133, 711, 237, 79, 26, 8.78, 2.93, 0.98 and 0.33 μM in 100% DMSO. Diluted compound was further diluted 20 fold with Kinase Assay Buffer (KAB). Peptide RRRAGALMDASFEEQ-CONH2 (MW 2090) was diluted to 1.2 μM with KAB and ATP was added to 400 μM. PLK1 stock, prepared as described above, was diluted to 3 μg protein/mL with KAB right before it was added to MATRIX 384-Well Polypropylene Black Plates to start the reaction. 20 μL of KAB diluted compounds (or 5% DMSO in KAB for Total and Blank), 20 μL of KAB diluted peptide with ATP and 40 μL of KAB diluted PLK1 solution (KAB without PLK 1 for Blanks) were transferred to each well of the polypropylene plates. The reaction mixtures were incubated at room temperature for 40 minutes. Reactions were stopped by addition of 10 uL Reaction Stopping Buffer (RSB) to each well. Plates were then read on LABCHIP EZ Reader II from Caliper Life Science.
The IC50 values for each compound were generated using an Excel template. The % conversion readings of Total and Blank were used as 0% and 100% inhibition. The percent inhibition values of reactions in the presence of compounds were calculated, and plotted against compound concentrations. All data were fitted into a Dose Response One Site model (4 parameter logistic model) as the following: (A+4B−A)/(1+((x/C)^13)))), with A and B as the bottom and top of the curve (highest and lowest inhibition), respectively, and C as IC50 and D as Hill Coefficient of the compound.

T1 sequence (P53350 whole entry): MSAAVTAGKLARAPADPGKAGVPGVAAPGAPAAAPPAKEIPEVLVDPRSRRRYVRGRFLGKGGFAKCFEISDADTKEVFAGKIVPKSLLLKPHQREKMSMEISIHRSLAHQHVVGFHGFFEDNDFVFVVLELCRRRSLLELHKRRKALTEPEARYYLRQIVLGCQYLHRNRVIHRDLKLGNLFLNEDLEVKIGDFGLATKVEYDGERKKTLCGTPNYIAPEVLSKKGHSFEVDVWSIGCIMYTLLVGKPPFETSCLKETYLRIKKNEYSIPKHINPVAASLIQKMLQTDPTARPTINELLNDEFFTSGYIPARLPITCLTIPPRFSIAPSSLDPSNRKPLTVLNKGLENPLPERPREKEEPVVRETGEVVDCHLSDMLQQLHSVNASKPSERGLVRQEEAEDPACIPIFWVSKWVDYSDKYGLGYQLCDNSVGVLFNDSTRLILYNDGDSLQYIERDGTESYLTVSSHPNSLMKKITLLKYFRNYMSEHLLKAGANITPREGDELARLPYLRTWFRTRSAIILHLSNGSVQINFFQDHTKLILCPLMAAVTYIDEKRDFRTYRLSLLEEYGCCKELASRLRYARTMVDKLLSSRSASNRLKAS

SMILES	IC50 [nM]
CN(C)CCN(C)Cc1ccc2ncn(-c3nc(-c4cccc(Cl)c4)c(C(N)=O)s3)c2c1 [Example 6, 4-(3-Chloro-phenyl)-2-(6-{[(2-dimethylamino-ethyl)-methyl-amino]-methyl}-benzoimidazol-1-yl)-thiazole-5-carboxylic acid amide]	500
CC(C)(C)OC(=O)NC1CCN(Cc2ccc3ncn(-c4nc(-c5cccc(Cl)c5)c(C(N)=O)s4)c3c2)CC1 [Example 12]	666
NC(=O)c1sc(-n2cnc3ccc(CN4CCC(N)CC4)cc32)nc1-c1cccc(Cl)c1 [Example 13, 2-[6-(4-Amino-piperidin-1-ylmethyl)-benzoimidazol-1-yl]-4-(3-chloro-phenyl)-thiazole-5-carboxylic acid amide]	37
CN1CCC(C(=O)NC2CCN(Cc3ccc4ncn(-c5nc(-c6cccc(Cl)c6)c(C(N)=O)s5)c4c3)CC2)CC1 [Example 14, 1-Methyl-piperidine-4-carboxylic acid (1-{3-[5-carbamoyl-4-(3-chloro-phenyl)-thiazol-2-yl]3H-benzoimidazol-5-ylmethyl}-piperidin-4-yl)-amide]	1480
CC(C)(C)OC(=O)NC(C)(C)C(=O)NC1CCN(Cc2ccc3ncn(-c4nc(-c5cccc(Cl)c5)c(C(N)=O)s4)c3c2)CC1 [Example 15, [1-(1-{3-[5-Carbamoyl-4-(3-chloro-phenyl)-thiazol-2-yl]-3H-benzoimidazol-5-ylmethyl}-piperidin-4-ylcarbamoyl)-1-methyl-ethyl]-carbamic acid tert-butyl ester]	5270
CC(C)(N)C(=O)NC1CCN(Cc2ccc3ncn(-c4nc(-c5cccc(Cl)c5)c(C(N)=O)s4)c3c2)CC1 [Example 16, 2-{6-[4-(2-Amino-2-methyl-propionylamino)-piperidin-1-ylmethyl]-benzoimidazol-1-yl}-4-(3-chloro-phenyl)-thiazole-5-carboxylic acid amide]	1290
CN1CCC(Oc2ccc3ncn(-c4nc(-c5cccc(Cl)c5)c(C(N)=O)s4)c3c2)CC1 [Example 22, 4-(3-Chloro-phenyl)-2-[6-(1-methyl-piperidin-4-yloxy)-benzoimidazol-1-yl]-thiazole-5-carboxylic acid amide]	18
NC(=O)c1sc(-n2cnc3ccc(OCC4CCNCC4)cc32)nc1-c1cccc(Cl)c1 [Example 23, 4-(3-Chloro-phenyl)-2-[6-(piperidin-4-ylmethoxy)-benzoimidazol-1-yl]-thiazole-5-carboxylic acid amide]	17
CN1CCC(COc2ccc3ncn(-c4nc(-c5cccc(Cl)c5)c(C(N)=O)s4)c3c2)CC1 [Example 24, 4-(3-Chloro-phenyl)-2-[6-(1-methyl-piperidin-4-ylmethoxy)-benzoimidazol-1-yl]-thiazole-5-carboxylic acid amide]	14
NC(=O)c1sc(-n2cnc3ccc(OCCN4CCCCC4)cc32)nc1-c1cccc(Cl)c1 [Example 27, 4-(3-Chloro-phenyl)-2-[6-(2-piperidin-1-yl-ethoxy)-benzoimidazol-1-yl]-thiazole-5-carboxylic acid amide]	264
CN1CCN(CCOc2ccc3ncn(-c4nc(-c5cccc(Cl)c5)c(C(N)=O)s4)c3c2)CC1 [Example 28, 4-(3-Chloro-phenyl)-2-{6-[2-(4-methyl-piperazin-1-yl)-ethoxy]-benzoimidazol-1-yl}-thiazole-5-carboxylic acid amide]	105
CN(C)CCOc1ccc2ncn(-c3nc(-c4cccc(Cl)c4)c(C(N)=O)s3)c2c1 [Example 29, 4-(3-Chloro-phenyl)-2-[6-(2-dimethylamino-ethoxy)-benzoimidazol-1-yl]-thiazole-5-carboxylic acid amide]	356
NC(=O)c1sc(-n2cnc3ccc(OCCCN4CCCCC4)cc32)nc1-c1cccc(Cl)c1 [Example 32, 4-(3-Chloro-phenyl)-2-[6-(3-piperidin-1-yl-propoxy)-benzoimidazol-1-yl]-thiazole-5-carboxylic acid amide]	80
NC(=O)c1sc(-n2cnc3ccc(OCCCN4CCCC4)cc32)nc1-c1cccc(Cl)c1 [Example 34, 4-(3-Chloro-phenyl)-2-[6-(3-pyrrolidin-1-yl-propoxy)-benzoimidazol-1-yl]-thiazole-5-carboxylic acid amide]	50
NC(=O)c1sc(-n2cnc3ccc(OCCCN(CCO)CCO)cc32)nc1-c1cccc(Cl)c1 [Example 35, 2-(6-{3-[Bis-(2-hydroxy-ethyl)-amino]-propoxy}-benzoimidazol-1-yl)-4-(3-chloro-phenyl)-thiazole-5-carboxylic acid amide]	68
CN1CCN(CCCCOc2ccc3ncn(-c4nc(-c5cccc(Cl)c5)c(C(N)=O)s4)c3c2)CC1 [Example 37, 4-(3-Chloro-phenyl)-2-{6-[4-(4-methyl-piperazin-1-yl)-butoxy]-benzoimidazol-1-yl}-thiazole-5-carboxylic acid amide]	27
NC(=O)c1sc(-n2cnc3ccc(OCCCCN4CCOCC4)cc32)nc1-c1cccc(Cl)c1 [Example 38, 4-(3-Chloro-phenyl)-2-[6-(4-morpholin-4-yl-butoxy)-benzoimidazol-1-yl]-thiazole-5-carboxylic acid amide]	11

Second part, the compound after the results:

IC50 [nM]	SMILES
80	NC(=O)c1sc(-n2cnc3ccc(OCCCNCCO)cc32)nc1-c1cccc(Cl)c1 [Example 36, 4-(3-Chloro-phenyl)-2-{6-[3-(2-hydroxy-ethylamino)-propoxy]-benzoimidazol-1-yl}-thiazole-5-carboxylic acid amide]
50	CN1CCN(CC(O)COc2ccc3ncn(-c4nc(-c5cccc(Cl)c5)c(C(N)=O)s4)c3c2)CC1 (stereo not drawn) [Example 39, 4-(3-Chloro-phenyl)-2-{6-[2-hydroxy-3-(4-methyl-piperazin-1-yl)-propoxy]-benzoimidazol-1-yl}-thiazole-5-carboxylic acid amide]
13	NC(=O)c1sc(-n2cnc3ccc(OCC(O)CN4CCOCC4)cc32)nc1-c1cccc(Cl)c1 (stereo not drawn) [Example 40, 4-(3-Chloro-phenyl)-2-[6-(2-hydroxy-3-morpholin-4-yl-propoxy)-benzoimidazol-1-yl]-thiazole-5-carboxylic acid amide]
16	NC(=O)c1sc(-n2cnc3ccc(CCCCN4CCOCC4)cc32)nc1-c1cccc(Cl)c1 [Example 41, 4-(3-Chloro-phenyl)-2-[6-(4-morpholin-4-yl-butyl)-benzoimidazol-1-yl]-thiazole-5-carboxylic acid amide]
8	COc1cc2ncn(-c3nc(-c4cccc(Cl)c4)c(C(N)=O)s3)c2cc1OCCCN1CCOCC1 [Example 43, 4-(3-Chloro-phenyl)-2-[5-methoxy-6-(3-morpholin-4-yl-propoxy)-benzoimidazol-1-yl]-thiazole-5-carboxylic acid amide]
61	COc1cc2ncn(-c3nc(-c4cccc(Cl)c4)c(C(N)=O)s3)c2cc1OCCN1CCN(C)CC1 [Example 44, 4-(3-Chloro-phenyl)-2-{5-methoxy-6-[2-(4-methyl-piperazin-1-yl)-ethoxy]-benzoimidazol-1-yl}-thiazole-5-carboxylic acid amide]
26	COc1cc2ncn(-c3nc(-c4cccc(Cl)c4)c(C(N)=O)s3)c2cc1OCCN1CCOCC1 [Example 45, 4-(3-Chloro-phenyl)-2-[5-methoxy-6-(2-morpholin-4-yl-ethoxy)-benzoimidazol-1-yl]-thiazole-5-carboxylic acid amide]
13	COc1cc2ncn(-c3nc(-c4cccc(Cl)c4)c(C(N)=O)s3)c2cc1CN1CCN(C)CC1 [Example 46, 4-(3-Chloro-phenyl)-2-[5-methoxy-6-(4-methyl-piperazin-1-ylmethyl)-benzoimidazol-1-yl]-thiazole-5-carboxylic acid amide]
566	NC(=O)c1sc(-n2cnc3ccc(CN(CCCN4CCOCC4)CCCN4CCOCC4)cc32)nc1-c1cccc(Cl)c1 [Example 49, 2-(6-{[Bis-(3-morpholin-4-yl-propyl)-amino]-methyl}-benzoimidazol-1-yl)-4-(3-chloro-phenyl)-thiazole-5-carboxylic acid amide]
85	CN(CCCN1CCOCC1)Cc1ccc2ncn(-c3nc(-c4cccc(Cl)c4)c(C(N)=O)s3)c2c1 [Example 50, 4-(3-Chloro-phenyl)-2-(6-{[methyl-(3-morpholin-4-yl-propyl)-amino]-methyl}-benzoimidazol-1-yl)-thiazole-5-carboxylic acid amide]
